We go through 1 molecule from patent US10653680B2, “Treatment of impulsivity-related disorders” (OXFORD UNIVERSITY INNOVATION LIMITED, priority 2016, dated 2020).

Structures are written as SMILES.

Series [1] concerns healthy participants. Description: Human study: subjective ratings (PANAS mood, side effect profile, LSEQ sleep, guess of treatment arm). The series is classed as in vivo. The text has this: (§1) Twenty healthy participants (7 females, 13 males; mean age 25.1 years, range 20-38 years; mean BMI 22.7 kg/m^2, range 18.7-30.0 kg/m^2) were included in the study after giving full informed written consent.
Exclusion criteria included a history of any DSM-5 Axis I psychiatric disorder (determined using the […] for Diagnostic and Statistical Manual for Mental Health Disorders), significant current medical condition, current regular medication (apart from the contraceptive pill), pregnancy or lactation, heavy smoking (defined as more than 5 cigarettes per day) and having taken part in another study involving an investigational drug within the previous 3 months. Participants were asked to maintain stable exercise and diet as well as refrain from alcohol during study participation.
(§2) Ebselen capsules and identical matching placebo (containing microcrystalline cellulose) were purchased from Shasun Pharmaceuticals Ltd. Participants were tested twice (seven days apart) receiving on one occasion ebselen and, on the other, placebo in a randomised, double-blind, cross-over design. Ebselen was administered in 6×200 mg capsules in three doses given over two days. The order of receiving either the ebselen or the placebo was randomised.
(§3) On the day before cognitive testing, participants took the first dose at 1 pm and the second dose at 10 pm. The final dose was taken around 3 hrs prior to cognitive testing. Participants were sent text message reminders a few minutes before they were due to take medication, and were asked to confirm receipt of the messages. The cognitive tasks were carried out immediately after a magnetic resonance spectroscopy study.
On the screening visit, participants were assessed for baseline depression and anxiety symptoms with the Beck Depression Inventory (Beck et al.; Arch. Gen. Psychiatry; 1961, 4: 561-571) and the state measure of the State-Trait Anxiety Inventory (STAI) (Spielberger et al.; Manual for the State-Trait Anxiety Inventory, Consulting Psychologists Press, Palo Alto Calif., 1983), and for personality with the Eysenck Personality Questionnaire (Eysenck and Eysenck, Manual of the Eysenck Personality Questionnaire, London: Hodder & Stoughton, 1975). On the morning preceding psychological testing, the Leeds Sleep Evaluation Questionnaire (LSEQ) was completed within 30 minutes of waking (Parrot and Hindmarch, Psychopharmacology, 1980, 71, 173-179).
Before cognitive testing, participants were asked to rate their mood using the Positive and Negative Affective Schedule (PANAS) (Watson et al.; J. Pers. Soc. Psychol., 1988, 54, 1063-1070), to complete a side effect profile using a 4-point rating scale and also to guess as to whether they had received ebselen or placebo on that randomization arm. […]

The test system of series [2] is healthy participants. Description: Cambridge Gambling Task (CGT). The series is classed as in vivo, human. On the procedure: as §1, §2, §3
The Cambridge Gambling Task (CGT) from the Cambridge Neuropsychological Test Automated Battery (CANTAB, version 3.0.0, Cambridge Cognition Ltd., Cambridge, UK) (Rogers et al.; Neuropsychopharmacology, 1999, 20, 322-333; Clark et al.; Brain, 2008, 131, 1311-1322) assesses decision-making and risk-taking behaviour outside a learning context. In each trial, participants are shown ten boxes at the top of the screen, with some boxes being red and some being blue. The ratio of red to blue boxes varies from 9:1; 8:2; 7:3; 6:4; 5:5 and vice versa in a pseudo-random order.
Participants are informed that a yellow token is hidden inside one of the boxes and asked to indicate the colour box in which the token is most likely to be hidden, by pressing the colour (RED or BLUE) in a response panel at the bottom of the screen. Following their response, the participants indicate confidence in their selection by betting a proportion of points they are allocated (starting with 100 points). […] On each trial five bets are offered, and each bet represents a fixed percentage of the current total points score (5, 25, 50, 75 and 95%). Possible bets are presented sequentially in a box on the right of the display and participants touch the box to select the bet. If correct, the bet value is added to their total points on the left of the panel, and if incorrect, it is subtracted from the total points.
Participants are asked to accumulate as many points as possible. […] Participants perform the task in four blocks of two separate conditions, ascending and descending bet value (the condition order is counterbalanced across participants). In the ascending condition, bets increase at 2.5 s time intervals from 5% to 95% until participants make their selection. This means that if a participant bets at the first value presented, then they bet only 5% of their total points, and if they wait for the highest value, they bet 95% of their total points. In the descending condition bets start from 95% and decrease to 5%. Low bets in the ascend condition and high bets in the descend condition reveal an impulsive betting strategy, while high bets in both conditions reveal a risk taking or reward seeking strategy.
From the first stage of the task (selecting the likely colour of the box in which the token is hidden), the outcome measures are deliberation time and quality of decision making. Deliberation time is the mean latency from presentation of coloured boxes to participant selection. Quality of decision making refers to the proportion of trials on which the more likely outcome is chosen. From the gamble stage, the outcome measures are risk taking, risk adjustment and delay aversion. Risk taking refers to the mean proportion of current points that the subject stakes on each gamble when the more likely outcome is selected, and can be regarded as an index of reward seeking or loss aversion. […]

The subject of a further series is rats. The following applies: in rats; cited from earlier work.
The subject of the next series is humans. The following applies: at pharmaceutically effective dosages; clinical trials for ischemic stroke (Yamaguchi et al); cited from earlier work.

Regarding `O=c1c2ccccc2[se]n1-c1ccccc1` [Ebselen, 2-phenyl-1,2-benzisoselenazol-3(2H)-one], the tolerability entry in the series on healthy participants [1] (20 healthy participants, 6x200 mg in three doses over two days, no participants dropped out) is recorded as “well tolerated”. Further, the “frequency of other side effects” value with healthy participants [1] (ebselen and placebo treatment compared) is “low and comparable frequency of side effects”. The “subjective measures of sleep (LSEQ)” value in the series on healthy participants [1] (ebselen vs placebo) is “no significant differences”. In the series on healthy participants [1] (of 20 participants on ebselen treatment, none on placebo), the “participants who reported feeling drowsy” value is “Five”. In the series on healthy participants [2] (ebselen vs placebo), the “effect on deliberation time” value is on record as “no significant effects”, the “effect on quality of decision making” value is listed as “no significant effects”, the “effect on reward seeking/risk taking” value is listed as “increase” and the “effect on risk adjustment” value is “no significant effects”. The “effect on delay aversion” value with healthy participants [2] (ebselen vs placebo, irrespective of probability of favourable outcome and token ratio) is listed as “significant decrease”. In the series on healthy participants [2] (human, ebselen 6x200 mg in three doses over two days, final dose around 3 hrs before testing, vs placebo p = 0.010), the “Delay aversion (%), Mean ± SEM” value was found to be 9.0 ± 2.14%. Further, in the series on healthy participants [2] (human, same regimen, vs placebo p = 0.046), the “Reward seeking (%), Mean ± SEM” value is 63.9 ± 1.45%. The “Risk adjustment, Mean ± SEM” value in the series on healthy participants [2] (human, same regimen, vs placebo p = 0.107) is listed as 2.1 ± 0.18. Besides, the “Deliberation time (ms), Mean ± SEM” value in the series on healthy participants [2] (human, same regimen, vs placebo p = 0.131) stood at 1408 ± 78 ms. Also, the “Quality of decision making (%), Mean ± SEM” value in the series with healthy participants [2] (human, same regimen, vs placebo p = 0.155) is 99.3 ± 0.3%. Besides, the LD50 concentration entry in the series on rats is given as “greater than 1000 mg/kg”. In addition, in the series with humans, the toxicity in humans entry is listed as “sufficiently non-toxic”.
